# According to US20060004036A1, “Sigma-2 receptor agonists and their use in the treatment of HIV infection” (The United States of America, per Secy. DHHS, NIH, priority 2003, published 2006):
# Legend:
# [1] = test system: HIV; experiment: HIV infectivity assay, luciferase activity in CEMX174 cells with SIV LTR-driven luciferase gene; assay type: cell-based; settings: for inhibition of HIV infection (in words): lymphocytes incubated 24 hours with drug, washed, exposed to HIV for 24 hours, luciferase activity (FIG. 2)
# Method: CEMX174 cells transfected with a luciferase gene driven by the Simian Immunodeficiency Virus (SIV) LTR are used in infectivity assays. Cells are then treated with sigma-2 receptor agonists at various concentrations followed by incubation in the presence or absence (control) of HIV. Luciferase activity quantifies HIV replication.
# This inhibition of HIV infection occurs at doses within the range of concentrations of CB-184 and haldol that produce reductions in membrane sphingomyelin, as shown above in FIG. 1. In these experiments, lymphocytes transfected with a luciferease gene driven by the Simian Immunodeficiency virus (SIV)LTR were incubated for 24 hours in the presence of the indicated dose of sigma-2 receptor agonist. The drugs were then removed, cells were washed and exposed to HIV for 24 hours. Cells were then lysed and luciferase activity quantified. Luciferase activity indicates the level of infectivity of the HIV virions. All of the compounds evaluated with sigma-2 agonist activity inhibited HIV infection at concentrations that were non-toxic to lymphocytes.
# [2] = test system: H9 lymphocytes; experiment: Membrane sphingomyelin levels in [3H]palmitic acid-labeled H9 lymphocytes; assay type: cell-based; settings: H9 cells, 24 hours incubation (FIG. 1)
# Method: Methods: Membrane sphingomyelin is metabolically labeled in H9 lymphocytes by incubating the cells with [^3H] palmitic acid in supplemented RPMI media for 48 h. Labeled media is removed and cells are incubated in the presence or absence of various concentrations of the sigma-2 receptor agonists CB-184 or haldol (haloperidol) for 24 hours. Total lipids are extracted and the dried organic layer is chromatographed on Silica G-60 plates. Sphingomyelin spots are scraped and quantified by liquid scintillation counting.
SMILES,inhibition of HIV infection (in words) [1],"effect of the antagonist on the ability of CB-184 to inhibit HIV infection of lymphocytes (in words) ([1]; with CB-184 at various doses and different HIV viral titres (FIG. 3, 4, 5))",reduction of control levels of membrane sphingomyelin ([2]; 0.3 μM),reduction of control levels of membrane sphingomyelin ([2]; 1 μM) [%]
"CN(CCc1ccc(Cl)c(Cl)c1)[C@H]1CCCC[C@H]1N1CCCC1 (relative stereo) [BD737, 1S,2R-(+)-cis-N-[2-(3,4-dichlorophenyl)ethyl]-N-methyl-2-(1-pyrrolidinyl)-cyclohexylamine]",dose-dependent inhibition,,,
"c1ccc(CCN2CCCCC2)cc1 [AC-927, N-phenethylpiperidine, reference compound]",,reversed,,
CN1CC[C@]2(c3cccc(O)c3)CC(=O)/C(=C/c3ccccc3)[C@H]1C2 [CB-64D],dose-dependent inhibition,,,
"CN1CC[C@]2(c3cccc(O)c3)CC(=O)/C(=C/c3ccc(Cl)c(Cl)c3)[C@H]1C2 [CB-184, (+)-1R,5R-E-8-(3,4-dichlorobenzylidene)-5-(3-hydroxyphenyl)-2-methylmorphan-7-one]",dose-dependent inhibition,,about 39%,~45
"O=C(CCCN1CCC(O)(c2ccc(Cl)cc2)CC1)c1ccc(F)cc1 [haldol, haloperidol, reference compound]",dose-dependent inhibition,,,
